From patent publication US6984727B1, “Gene involved in brassinosteroid responses” (National Institute of Agrobiological Science, priority 2000, dated 2006)

System: second leaf of rice
Assay: leaf blade bend response test (brassinosteroid response test)
Format: in vivo
Details: cut second leaf germinated in the dark, immersed in 1 ng/ml solution for 48 hours
Description: The present gene was deduced to be a factor involved in the signal transduction system for plant hormones, taking note of the facts that the present gene was expressed in all plant bodies and that pleiotropic influences resulted from destroying this gene, as well as the possibility that the gene might be a factor involved in the signal transduction system. Presuming that the signal transduction system is that for brassinosteroid hormone in view of the resultant upright form, the inventors performed a leaf blade bend response test as a brassinosteroid response test, by using brassinolide, which is one kind of brassinosteroid hormone. The second leaf of rice which was allowed to germinate in the dark was cut off, and immersed in a 1 ng/ml of brassinosteroid solution for 48 hours.

CC(C)[C@H](C)[C@@H](O)[C@H](O)[C@@H](C)[C@H]1CC[C@H]2[C@@H]3COC(=O)[C@H]4C[C@H](O)[C@H](O)C[C@]4(C)[C@H]3CC[C@]12C [brassinolide]
bending of the leaf blades and leaf sheath junctions (Tos17-insertion mutant individuals (A0369, NC6148)): showed little bending thereof
bending of the leaf blades and leaf sheath junctions (wild type individuals (Akitakomachi, Nipponbare)): showed bending of the leaf blades and leaf sheath junctions
